From US9433211B2, “Antimicrobial agent” (TAIYO CORPORATION, priority 2012, dated 2016)
Converted amounts (≈) assume the structure as drawn.

Key:
[1] = tested on: black mold (A. niger, JCM10254); experiment: Verification test of antimicrobial effects (minimum inhibitory concentration) on black mold; type: cell-based; conditions: for MIC: Aspergillus niger, JCM10254, 96 h; for MIC / Minimum inhibitory concentration: A. niger, cultured at 30° C. aerobic four days, visual turbidity, 156-2500 ppm tested; for antimicrobial activities, comparison in words: against black mold (A. niger), from the results in Table 1
Procedure: (§1) 0.5 ml of a previously sterilized culture medium (trade name “Potato dextrose liquid culture medium”, made by Nissui Pharmaceutical Co., Ltd. was placed into a 96-well deep type microplate, then the propanediol mono-β-hydroxycarboxylic acid esters (the present invention products 1 to 10), the glycerin mono β-hydroxydecanoic acid ester (comparative product 1), the β-hydroxydecanoic acid potassium (comparative product 2) prepared in the above descriptions of (1) to (5) as well as 1,2-octanediol (comparative product 3), 1,2-propanediol (comparative product 4) and 1,3-propanediol (comparative product 5) known as an auxiliary antiseptic agent for external preparations for skin were respectively added, and the culture medium was diluted in a step-wise manner so that the final concentration in the medium was 156 ppm, 312 ppm, 625 ppm, 1250 ppm, and 2500 ppm to prepare sample solutions.
(§2) To these sample solutions, 0.1 ml of each culture solution of blackmold (A. niger, JCM10254) and yeast (C. albicans, NBRC1594) at approximately 1×10^6 CFU/ml were added, and the solutions were cultured at 30° C. under an aerobic condition for four days. Antimicrobial effects were visually determined. The solutions were compared with test areas in which the above microorganisms had not been added. Test areas in which no turbidity due to growth of the microorganism was observed were determined to have antimicrobial effects, and the lowest concentration necessary for inhibiting the growth of the microorganism (hereinafter referred to as “minimum inhibitory concentration”) was measured.

[2] = tested on: yeast (C. albicans, NBRC1594); experiment: Verification test of antimicrobial effects (minimum inhibitory concentration) on yeast; type: cell-based; conditions: for MIC: 96 h; for MIC / Minimum inhibitory concentration: C. albicans, cultured at 30° C. aerobic four days, visual turbidity, 156-2500 ppm tested; for antimicrobial activities, comparison in words: against yeast (C. albicans), from the results in Table 1
Procedure: as §1, §2

[3] = Compounding property in cosmetic, pharmaceutical and industrial formulations; type: physicochemical; conditions: 0.30 weight %
Procedure: Glycerin, DPG, POE (60) hydrogenated castor oil, and 1,3-propanediol mono-β-hydroxydecanoic acid ester were mixed and dissolved by being heated to 70° C. (the resulting mixture was referred to as a mixture A). On the other hand, citrate acid Na, citric acid, glycine, alanine, hyaluronic acid Na, and water were individually mixed at room temperature (the resulting mixture was referred to as a mixture B). Then, the mixture A and the mixture B were combined and mixed at 50° C., and thus a lotion was obtained.
Cetanol, squalane, stearic acid, γ-tocopherol, BHT, polyethylene glycol monostearate (25EO), glycerin stearic acid monoester, and 1,3-propanediol mono-β-hydroxydecanoic acid ester were individually mixed and dissolved by being heated to 70° C. (the resulting mixture was referred to as a mixture A). On the other hand, 1,3-butanediol, carboxy vinyl polymer, and potassium hydroxide were individually mixed at room temperature (the resulting mixture was referred to as a mixture B). Then, the mixture A and the mixture B were combined and heated to 60° C. and were vigorously stirred and emulsified while being gradually added in small quantities to the purified water, and thus a milky lotion was obtained.
With regard to the compounding example 6, pantothenic acid, hyaluronic acid, thioxolone, hydrocortisone acetate, tocopherol, and minoxidil were mixed individually and dissolved by being heated to 70° C. (the resulting mixture was referred to as a mixture A). On the other hand, glycerin, polyoxyethylene glycol monoether, ethanol, and the present invention product 8 (1,3-propanediol mono-β-hydroxydecanoic acid ester) were mixed at room temperature (the resulting mixture was referred to as a mixture B). Then, the mixture A and the mixture B were combined and heated to 70° C. and were vigorously stirred while being added gradually in small quantities to water, and thus a hair growth liquid was obtained.
In preparing the compounding example 11, polyoxyethylene nonylphenylether, polyoxyethylene sorbitan monosterate, BHT, and fragrant material were mixed individually and dissolved by being heated to 80° C. (the resulting mixture was referred to as a mixture A). On the other hand, gellan gum, propylene glycol, the present invention product 8 (1,3-propanediol mono-β-hydroxydecanoic acid ester), and water were mixed at 80° C. (the resulting mixture was referred to as a mixture B). Then, the mixture B was gradually added in small quantities to the mixture A, heated to 80° C., and were vigorously stirred, and thus a transparent aqueous aromatic agent for vehicles was obtained.

[4] = hair growth liquid (compounding example 6)
[5] = transparent aqueous aromatic agent for vehicles (compounding example 11)

Structure (SMILES) | MIC [1] [µg/mL] | MIC [2] [µg/mL] | antimicrobial activities, comparison in words [2] | Minimum inhibitory concentration [1] [ppm] | Minimum inhibitory concentration [2] [ppm] | further results
CC(O)CO (stereo not shown) [Comparative product 4, 1,2-propanediol, reference compound] | – | – | lower antimicrobial activities | >2500 | >2500 | antimicrobial activities, comparison in words [1]: lower antimicrobial activities
CCCCCCC(O)CC(=O)OCCCO (stereo not drawn) [Present invention product 9, 1,3-propanediol mono-β-hydroxynonanoic acid ester] | – | – | – | 1250 | 1250 | –
CCCCCCCC(O)CC(=O)OCC(O)CO (stereo not drawn) [Comparative product 1, glycerin mono β-hydroxydecanoic acid ester, reference compound] | – | – | – | 2500 | >2500 | –
CCCCCC(O)CC(=O)OCC(C)O (stereo not drawn) [Present invention product 5, 1,2-propanediol mono-β-hydroxyoctanoic acid ester] | – | – | lower than 1,2-octanediol | 2500 | >2500 | –
OCCCO [Comparative product 5, 1,3-propanediol, reference compound] | – | – | lower antimicrobial activities | >2500 | >2500 | antimicrobial activities, comparison in words [1]: lower antimicrobial activities
CCCCCC(O)CC(=O)OCCCO (stereo not drawn) [Present invention product 10, 1,3-propanediol mono-β-hydroxyoctanoic acid ester] | – | – | lower than 1,2-octanediol | 2500 | >2500 | –
CCCCCCC(O)CC(=O)OCC(C)O (stereo not drawn) [Present invention product 4, 1,2-propanediol mono-β-hydroxynonanoic acid ester] | – | – | – | 1250 | 1250 | –

Now from value to compound, other results behind:

MIC [1] [µg/mL] | MIC [2] [µg/mL] | Structure (SMILES) | antimicrobial activities, comparison in words [2] | Minimum inhibitory concentration [1] [ppm] | Minimum inhibitory concentration [2] [ppm] | further results
312 (≈ 1270 µM) | 625 (≈ 2540 µM) | CCCCCCCC(O)CC(=O)OCCCO (stereo not drawn) [Present invention product 8, 1,3-propanediol mono-β-hydroxydecanoic acid ester] | very stronger antimicrobial activities | – | – | antimicrobial activities, comparison in words [1]: very stronger antimicrobial activities; compounding property: mixing with other components [3, 4]: easily mixed with other components; compounding property: turbidity or precipitation in the obtained product [3, 4]: not found; compounding property: mixing with other components ([3]; lotion): easily mixed with other components; compounding property: turbidity or precipitation in the obtained product ([3]; lotion): not found; compounding property: mixing with other components [3, 5]: easily mixed with other components; compounding property: turbidity or precipitation in the obtained product [3, 5]: not found
312 (≈ 1200 µM) | 312 (≈ 1200 µM) | CCCCCCCCC(O)CC(=O)OCC(C)O (stereo not drawn) [Present invention product 2, 1,2-propanediol mono-β-hydroxyundecanoic acid ester] | – | – | – | –
156 (≈ 569 µM) | 312 (≈ 1140 µM) | CCCCCCCCCC(O)CC(=O)OCCCO (stereo not drawn) [Present invention product 6, 1,3-propanediol mono-β-hydroxydodecanoic acid ester] | – | – | – | –
312 (≈ 1270 µM) | 625 (≈ 2540 µM) | CCCCCCCC(O)CC(=O)OCC(C)O (stereo not drawn) [Present invention product 3, 1,2-propanediol mono-β-hydroxydecanoic acid ester] | very stronger antimicrobial activities | – | – | antimicrobial activities, comparison in words [1]: very stronger antimicrobial activities
1250 | 2500 | CCCCCCCC(O)CC(=O)O.[K] (stereo not drawn) [Comparative product 2, β-hydroxydecanoic acid potassium, reference compound] | – | – | – | –
2500 (≈ 17100 µM) | 2500 (≈ 17100 µM) | CCCCCCC(O)CO (stereo not shown) [Comparative product 3, 1,2-octanediol, reference compound] | – | – | – | –
312 (≈ 1200 µM) | 312 (≈ 1200 µM) | CCCCCCCCC(O)CC(=O)OCCCO (stereo not drawn) [Present invention product 7, 1,3-propanediol mono-β-hydroxyundecanoic acid ester] | – | – | – | –
312 (≈ 1140 µM) | 312 (≈ 1140 µM) | CCCCCCCCCC(O)CC(=O)OCC(C)O (stereo not drawn) [Present invention product 1, 1,2-propanediol mono-β-hydroxydodecanoic acid ester] | – | – | – | –
